Where two headings read alike, the source gives them in different places.
Assays:
[1] = system: Plasmodium falciparum 3D7-A10 parasites; assay: Stage specificity assay (8-h exposure of synchronized stages, IC50^8h); assay type: cell-based; details: for IC50: Plasmodium falciparum
[2] = system: asynchronous 3D7-A10 parasite cultures; assay: Standard 72-h exposure asexual blood stage susceptibility assay (IC50^72h); assay type: cell-based, Plasmodium falciparum; details: Plasmodium falciparum, 3D7, 72 h, read-out: Overall (72hr assay) Mean IC50 (IC50^72h)
[3] = system: 3D7-MR4 trophozoite parasite-infected RBCs; assay: Metabolomic profiling (hydrophilic metabolite changes, UHPLC-MS); assay type: cell-based, Plasmodium falciparum

## Cc1ccc(Oc2ncccc2C(=O)Nc2cccc3cccnc23)c(C)c1 [MMV020746]
[1]; 3D7-A10
  Ratio lowest IC50 8hr/IC50 72hr: 221.5
[1]; 3D7, read-out: Early rings IC50 (IC50^8h), 8-h exposure 0–8 hr, bound given in μM
  IC50: > 25 µM
[1]; 3D7, read-out: Early trophozoites Mean IC50 (IC50^8h), 8-h exposure 16–24 hr, 3D7-A10, survival at 60 h
  IC50: 12.6 µM
[1]; 3D7, read-out: Late rings IC50 (IC50^8h), 8-h exposure 8–16 hr, bound given in μM
  IC50: > 25 µM
[1]; 3D7, read-out: Late trophozoites IC50 (IC50^8h), 8-h exposure 24–32 hr, bound given in μM
  IC50: > 25 µM
[1]; 3D7, read-out: Schizonts IC50 (IC50^8h), 8-h exposure 32–40 hr, bound given in μM
  IC50: > 25 µM
[1]; most susceptible stages
  IC50^8h relative to IC50^72h value: > 28 fold
[2]
  IC50: 0.0568 µM
[3]; 10 × IC50^72h, 2.5 hr, trophozoites
  peptide levels (hemoglobin catabolism signature): decreased peptide levels
[3]; metabolite 3-phosphoglycerate, log2 fold change
  Log2(fold changes) 3-phosphoglycerate: -0.8487
[3]; metabolite 4-Pyridoxic acid, log2 fold change
  Log2(fold changes) 4-Pyridoxic acid: -0.4495
[3]; metabolite 4-aminobutyrate, log2 fold change
  Log2(fold changes) 4-aminobutyrate: -0.1236
[3]; metabolite 4-phosphopantetheine, log2 fold change
  Log2(fold changes) 4-phosphopantetheine: 0.0000
[3]; metabolite 4-phosphopantothenate, log2 fold change
  Log2(fold changes) 4-phosphopantothenate: -0.7722
[3]; metabolite 5-aminopentanoic acid, log2 fold change
  Log2(fold changes) 5-aminopentanoic acid: 0.0000
[3]; metabolite 5-methyl-THF, log2 fold change
  Log2(fold changes) 5-methyl-THF: 0.0000
[3]; metabolite 5-phosphoribosyl-1-pyrophosphate, log2 fold change
  Log2(fold changes) 5-phosphoribosyl-1-pyrophosphate: 0.0000
[3]; metabolite 6-phospho-D-gluconate, log2 fold change
  Log2(fold changes) 6-phospho-D-gluconate: -0.3888
[3]; metabolite HVDD
  Log2(fold change) HVDD: -4.2936
[3]; metabolite Hydroxyisocaproic acid
  Log2(fold change) Hydroxyisocaproic acid: 0.0000
[3]; metabolite IDP
  Log2(fold change) IDP: 0.0000
[3]; metabolite IMP
  Log2(fold change) IMP: -0.0604
[3]; metabolite Inositol
  Log2(fold change) Inositol: 0.0000
[3]; metabolite Isopentyl-PP
  Log2(fold change) Isopentyl-PP: -0.6932
[3]; metabolite L-arginino-succinate
  Log2(fold change) L-arginino-succinate: -0.2156
[3]; metabolite LD
  Log2(fold change) LD: 0.1860
[3]; metabolite Myristoyl/tetradecanoyl-CoA
  Log2(fold change) Myristoyl/tetradecanoyl-CoA: 0.0000
[3]; metabolite N-Acetyl-L-alanine
  Log2(fold change) N-Acetyl-L-alanine: 0.0990
[3]; metabolite N-acetyl-L-ornithine
  Log2(fold change) N-acetyl-L-ornithine: -1.5863
[3]; metabolite N-acetyl-glucosamine-1/6-phosphate
  Log2(fold change) N-acetyl-glucosamine-1/6-phosphate: 0.3354
[3]; metabolite N-acetyl-glutamate
  Log2(fold change) N-acetyl-glutamate: -0.0291
[3]; metabolite N-acetyl-glutamine
  Log2(fold change) N-acetyl-glutamine: 0.3326
[3]; metabolite N-carbamoyl-L-aspartate
  Log2(fold change) N-carbamoyl-L-aspartate: -0.0111
[3]; metabolite NAD+
  Log2(fold change) NAD+: -0.2290
[3]; metabolite NADH
  Log2(fold change) NADH: 3.2383
[3]; metabolite NADP+
  Log2(fold change) NADP+: -0.2621
[3]; metabolite NADPH
  Log2(fold change) NADPH: 2.9387
[3]; metabolite O-acetyl-L-serine
  Log2(fold change) O-acetyl-L-serine: -0.1299
[3]; metabolite Octoluse 8/1P
  Log2(fold change) Octoluse 8/1P: -0.0750
[3]; metabolite Octoluse Bisphosphate
  Log2(fold change) Octoluse Bisphosphate: 0.1477
[3]; metabolite PD
  Log2(fold change) PD: -2.6591
[3]; metabolite PE
  Log2(fold change) PE: -2.3902
[3]; metabolite PEE
  Log2(fold change) PEE: -2.3026
[3]; metabolite PEEK
  Log2(fold change) PEEK: -2.5604
[3]; metabolite PVNF
  Log2(fold change) PVNF: -4.8059
[3]; metabolite Pyroglutamic acid
  Log2(fold change) Pyroglutamic acid: 0.1917
[3]; metabolite Pyrophosphate
  Log2(fold change) Pyrophosphate: 0.0000
[3]; metabolite Ribose-5-phosphate
  Log2(fold change) Ribose-5-phosphate: -0.7820
[3]; metabolite S-adenosyl-L-homocysteine
  Log2(fold change) S-adenosyl-L-homocysteine: -0.0800
[3]; metabolite S-adenosyl-L-methioninamine
  Log2(fold change) S-adenosyl-L-methioninamine: -2.2715
[3]; metabolite S-adenosyl-L-methionine
  Log2(fold change) S-adenosyl-L-methionine: 0.0000
[3]; metabolite S-methyl-5'-thioadenosine
  Log2(fold change) S-methyl-5'-thioadenosine: 0.5248
[3]; metabolite SD
  Log2(fold change) SD: -1.2335
[3]; metabolite SDL
  Log2(fold change) SDL: 0.0000
[3]; metabolite SID
  Log2(fold change) SID: -1.9821
[3]; metabolite Sedoheptulose bisphosphate
  Log2(fold change) Sedoheptulose bisphosphate: -0.9337
[3]; metabolite Thiamine pyrophosphate
  Log2(fold change) Thiamine pyrophosphate: -0.1414
[3]; metabolite UDP-D-glucose, log2 fold change
  Log2(fold changes) UDP-D-glucose: 0.0347
[3]; metabolite UDP-D-glucuronate, log2 fold change
  Log2(fold changes) UDP-D-glucuronate: -0.1265
[3]; metabolite UDP-N-acetyl-glucosamine, log2 fold change
  Log2(fold changes) UDP-N-acetyl-glucosamine: -0.1353
[3]; metabolite UDP, log2 fold change
  Log2(fold changes) UDP: -0.5234
[3]; metabolite UMP, log2 fold change
  Log2(fold changes) UMP: 0.1786
[3]; metabolite UTP, log2 fold change
  Log2(fold changes) UTP: 0.0000
[3]; metabolite hydroxyphenylpyruvate
  Log2(fold change) hydroxyphenylpyruvate: 0.0000
[3]; metabolite hydroxyproline/Aminolevulinate
  Log2(fold change) hydroxyproline/Aminolevulinate: -0.2593
[3]; metabolite hypoxanthine
  Log2(fold change) hypoxanthine: 0.0518
[3]; metabolite indole
  Log2(fold change) indole: 0.0000
[3]; metabolite inosine
  Log2(fold change) inosine: -0.1327
[3]; metabolite isoleucine
  Log2(fold change) isoleucine: 0.0000
[3]; metabolite lactate
  Log2(fold change) lactate: -0.6990
[3]; metabolite leucine
  Log2(fold change) leucine: 0.0000
[3]; metabolite lysine
  Log2(fold change) lysine: -2.2531
[3]; metabolite malate
  Log2(fold change) malate: -0.6987
[3]; metabolite maleic acid
  Log2(fold change) maleic acid: -0.7709
[3]; metabolite methionine
  Log2(fold change) methionine: -0.0286
[3]; metabolite myo-inositol
  Log2(fold change) myo-inositol: -0.7655
[3]; metabolite nicotinamide mononucleotide
  Log2(fold change) nicotinamide mononucleotide: -0.5765
[3]; metabolite nicotinate
  Log2(fold change) nicotinate: -0.1328
[3]; metabolite ornithine
  Log2(fold change) ornithine: -0.3857
[3]; metabolite orotate
  Log2(fold change) orotate: -0.1387
[3]; metabolite orotidine-5'-phosphate
  Log2(fold change) orotidine-5'-phosphate: 0.0782
[3]; metabolite oxaloacetate
  Log2(fold change) oxaloacetate: -0.6442
[3]; metabolite p-aminobenzoate
  Log2(fold change) p-aminobenzoate: 0.0000
[3]; metabolite p-hydroxybenzoate
  Log2(fold change) p-hydroxybenzoate: 0.0000
[3]; metabolite pantothenate
  Log2(fold change) pantothenate: -0.1112
[3]; metabolite phenylalanine
  Log2(fold change) phenylalanine: -0.4829
[3]; metabolite phenylpyruvate
  Log2(fold change) phenylpyruvate: 0.0000
[3]; metabolite phosphoenolpyruvate
  Log2(fold change) phosphoenolpyruvate: -0.5858
[3]; metabolite prephenate
  Log2(fold change) prephenate: -0.3824
[3]; metabolite proline
  Log2(fold change) proline: -0.5702
[3]; metabolite pyridoxine
  Log2(fold change) pyridoxine: -0.1642
[3]; metabolite pyruvate
  Log2(fold change) pyruvate: -1.5001
[3]; metabolite riboflavin
  Log2(fold change) riboflavin: 0.4413
[3]; metabolite ribose
  Log2(fold change) ribose: -0.0174
[3]; metabolite ribose-phosphate
  Log2(fold change) ribose-phosphate: -1.1321
[3]; metabolite ribulose-5-phosphate
  Log2(fold change) ribulose-5-phosphate: -0.7375
[3]; metabolite serine
  Log2(fold change) serine: -0.1379
[3]; metabolite sn-glycerol-3-phosphate
  Log2(fold change) sn-glycerol-3-phosphate: 0.0529
[3]; metabolite succinate/Methylmalonic acid
  Log2(fold change) succinate/Methylmalonic acid: -0.5504
[3]; metabolite succinyl-CoA/methylmalonyl-CoA
  Log2(fold change) succinyl-CoA/methylmalonyl-CoA: 0.0000
[3]; metabolite taurine
  Log2(fold change) taurine: 0.3831
[3]; metabolite thiamine
  Log2(fold change) thiamine: -0.5873
[3]; metabolite threonine/homoserine
  Log2(fold change) threonine/homoserine: -0.5084
[3]; metabolite thymidine
  Log2(fold change) thymidine: 0.0000
[3]; metabolite thymine, log2 fold change
  Log2(fold changes) thymine: 0.0000
[3]; metabolite trehalose-6-Phosphate, log2 fold change
  Log2(fold changes) trehalose-6-Phosphate: 0.0000
[3]; metabolite tryptophan, log2 fold change
  Log2(fold changes) tryptophan: -0.7516
[3]; metabolite tyrosine, log2 fold change
  Log2(fold changes) tyrosine: -0.2515
[3]; metabolite uridine, log2 fold change
  Log2(fold changes) uridine: 0.0000
